Patent publication US20230091047A1 (priority 2019, published 2023)
Like-named read-outs stand apart in the source and are kept apart here.

Key:
[1] = test system: HBV (HepG2.117 cell line, inducibly HBV producing); test: Anti-HBV activity: intracellular HBV DNA by real-time PCR in HepG2.117 cells after 3 days of treatment; type: cell-based, hepatitis B virus
Method in brief: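 Inducible HBV-producing HepG2.117 line (Tet-off); 3-day exposure to serially diluted compound after induction; real-time PCR of intracellular viral DNA.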

HepG2 cells = test: in vitro; type: cell-based; settings: HepG2 or HepG2.117 cells, mean value, read-out: CC50 (μM, mean value)
Method in brief: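 Luminescent ATP quantitation served as the viability endpoint following a 3- or 4-day incubation with test compounds.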

[2] = HepG2.117 cells, 3 days of treatment, intracellular HBV DNA by real-time PCR; mean value; read-out: EC50 (μM, mean value)
[3] = 3-days incubation (unmarked values), ATPlite
[4] = HepG2.117 cells, intracellular HBV DNA by real-time PCR, 3 days of treatment, mean value; read-out: EC50 (μM, mean value)
[5] = ATPlite, 3-days incubation (not marked with *)

COc1ccccc1-n1c(NCc2ccc3c(c2)OCO3)nc2c(c1=O)CCN(C(=O)c1ccc(Cl)c(Cl)c1)C2 (single isomer, unassigned) [Compound C26a, 2-{[(2H-1,3-benzodioxol-5-yl)methyl]amino}-7-(3,4-dichlorobenzoyl)-3-(2-methoxyphenyl)-5,6,7,8-tetrahydropyrido[3,4-d]pyrimidin-4(3H)-one]
EC50 [1, 2]: 1.42 µM
CC50 (HepG2 cells; [3]): > 50 µM

COc1ccccc1-n1c(NCc2ccc3c(c2)OCO3)nc2c(c1=O)CCN(C(=O)c1ccc(Cl)c(Cl)c1)C2 (single isomer, unassigned) [Compound C26b, 2-{[(2H-1,3-benzodioxol-5-yl)methyl]amino}-7-(3,4-dichlorobenzoyl)-3-(2-methoxyphenyl)-5,6,7,8-tetrahydropyrido[3,4-d]pyrimidin-4(3H)-one]
EC50 [1, 2]: 1.04 µM
CC50 (HepG2 cells; [3]): > 50 µM

COc1ccc(CNc2nc3c(c(=O)n2-c2ccccc2OC)C[C@H](C)N(C(=O)c2ccc(Cl)c(Cl)c2)C3)cc1 (single isomer, unassigned) [Compound C36Ba]
EC50 [1, 2]: 1.21 µM
CC50 (HepG2 cells; [3]): > 50 µM

COc1ccc(CNc2nc3c(c(=O)n2-c2ccccc2OC)C[C@H](C)N(C(=O)c2ccc(Cl)c(Cl)c2)C3)cc1 (single isomer, unassigned) [Compound C36Bb]
EC50 [1, 2]: > 50 µM
CC50 (HepG2 cells; [3]): > 50 µM

COc1ccccc1-n1c(N[C@@H](C)CO)nc2c(c1=O)CCN(C(=O)c1ccc(Cl)c(Cl)c1)C2 (single isomer, unassigned) [Compound C62Bb, 7-(3,4-dichlorobenzoyl)-2-{[(2*S)-1-hydroxypropan-2-yl]amino}-3-(2-methoxyphenyl)-5,6,7,8-tetrahydropyrido[3,4-d]pyrimidin-4(3H)-one]
EC50 [1, 2]: 6.6 µM
CC50 (HepG2 cells; [3]): > 50 µM

COc1ccccc1-n1c(N[C@H](C)C(F)(F)F)nc2c(c1=O)CCN(C(=O)c1ccc(Cl)c(Cl)c1)C2 (single isomer, unassigned) [Compound C101b]
EC50 [1, 2]: 9.59 µM
CC50 (HepG2 cells; [3]): 33.2 µM

CNC(=O)c1ccc(-n2c(NC(C)C)nc3c(c2=O)C[C@@H](C)N(C(=O)c2ccc(Cl)c(Cl)c2)C3)c(Cl)c1 (single isomer, unassigned) [Compound C293a]
EC50 [1, 2]: 0.06 µM
CC50 (HepG2 cells; [3]): 33.4 µM

Cc1cc(-n2cccn2)ccc1-n1c(NC(C)C)nc2c(c1=O)C[C@@H](C)N(C(=O)c1ccc(Cl)c(Cl)c1)C2 (single isomer, unassigned) [Compound C308b]
EC50 [1, 2]: 0.16 µM
CC50 (HepG2 cells; [3]): > 50 µM

CNC(=O)c1ccc(-n2c(NC(C)C)nc3c(c2=O)C[C@@H](C)N(C(=O)c2ccc(Cl)c(Cl)c2)C3)c(OC)c1 (single isomer, unassigned) [Compound C314b]
EC50 [1, 2]: 0.22 µM
CC50 (HepG2 cells; [3]): > 50 µM

CNC(=O)c1ccc(-n2c(NC(C)C)nc3c(c2=O)C[C@@H](C)N(C(=O)c2ccc(Cl)c(Cl)c2)C3)c(C(F)(F)F)c1 (single isomer, unassigned) [Compound C340b]
EC50 [1, 2]: 0.39 µM
CC50 (HepG2 cells; [3]): 29.8 µM

CCc1cc(C(=O)NC)ccc1-n1c(NC(C)C)nc2c(c1=O)C[C@@H](C)N(C(=O)c1ccc(Cl)c(Cl)c1)C2 (single isomer, unassigned) [Compound C383b]
EC50 [1, 4]: 0.17 µM
CC50 (HepG2 cells; [5]): > 45 µM

CNC(=O)c1ccc(-n2c(N[C@@H](C)c3ccccc3)nc3c(c2=O)C[C@@H](C)N(C(=O)c2ccc(Cl)c(Cl)c2)C3)c(Cl)c1 (single isomer, unassigned) [Compound C386b]
EC50 [1, 4]: 0.1 µM
CC50 (HepG2 cells; [5]): > 50 µM

CNC(=O)c1ccc(-n2c(N[C@@H](C)C3CC3)nc3c(c2=O)C[C@@H](C)N(C(=O)c2ccc(Cl)c(Cl)c2)C3)c(Cl)c1 (single isomer, unassigned) [Compound C387b]
EC50 [1, 4]: 0.06 µM
CC50 (HepG2 cells; [5]): 36.8 µM

CC(C)Nc1nc2c(c(=O)n1-c1ccc(-c3nccn3C)cc1Cl)C[C@@H](C)N(C(=O)c1ccc(Cl)c(Cl)c1)C2 (single isomer, unassigned) [Compound C392b]
EC50 [1, 4]: 0.12 µM
CC50 (HepG2 cells; [5]): 26.7 µM

CC(C)Nc1nc2c(c(=O)n1-c1ccc(-c3ncc[nH]3)cc1Cl)C[C@@H](C)N(C(=O)c1ccc(Cl)c(Cl)c1)C2 (single isomer, unassigned) [Compound C393a]
EC50 [1, 4]: 0.12 µM
CC50 (HepG2 cells; [5]): 14.1 µM

CC(C)Nc1nc2c(c(=O)n1-c1ccc(-c3ncc[nH]3)cc1Cl)C[C@@H](C)N(C(=O)c1ccc(Cl)c(Cl)c1)C2 (single isomer, unassigned) [Compound C393b]
EC50 [1, 4]: 0.24 µM
CC50 (HepG2 cells; [5]): 31.7 µM

Cc1cc(-c2ncc[nH]2)ccc1-n1c(NC(C)C)nc2c(c1=O)C[C@@H](C)N(C(=O)c1ccc(Cl)c(Cl)c1)C2 (single isomer, unassigned) [Compound C399a]
EC50 [1, 4]: 0.14 µM
CC50 (HepG2 cells; [5]): 27.7 µM

Cc1cc(-c2ncc[nH]2)ccc1-n1c(NC(C)C)nc2c(c1=O)C[C@@H](C)N(C(=O)c1ccc(Cl)c(Cl)c1)C2 (single isomer, unassigned) [Compound C399b]
EC50 [1, 4]: 0.16 µM
CC50 (HepG2 cells; [5]): 27 µM

COc1ccc([C@H](C)Nc2nc3c(c(=O)n2-c2ccc(NC(C)=O)cc2)C[C@@H](C)N(C(=O)c2ccc(Cl)c(Cl)c2)C3)cc1 (single isomer, unassigned) [Compound C410a]
EC50 [1, 4]: 0.95 µM
CC50 (HepG2 cells; [5]): > 50 µM

CNC(=O)c1ccc(-n2c(NC(C)C)nc3c(c2=O)C[C@@H](C)N(C(=O)c2ccc(Cl)c(Cl)c2)C3)c(C(C)C)c1 (single isomer, unassigned) [Compound C420a]
EC50 [1, 4]: 0.72 µM
CC50 (HepG2 cells; [5]): 21.7 µM

CNC(=O)c1ccc(-n2c(NC(C)C)nc3c(c2=O)C[C@@H](C)N(C(=O)c2ccc(Cl)c(Cl)c2)C3)c(C(C)C)c1 (single isomer, unassigned) [Compound C420b]
EC50 [1, 4]: 0.35 µM
CC50 (HepG2 cells; [5]): 23.5 µM

CNc1noc2cc(-n3c(NC(C)C)nc4c(c3=O)C[C@@H](C)N(C(=O)c3ccc(Cl)c(Cl)c3)C4)c(C)cc12 (single isomer, unassigned) [Compound C447a]
EC50 [1, 4]: 0.23 µM
CC50 (HepG2 cells; [5]): > 50 µM

CNc1noc2cc(-n3c(NC(C)C)nc4c(c3=O)C[C@@H](C)N(C(=O)c3ccc(Cl)c(Cl)c3)C4)c(C)cc12 (single isomer, unassigned) [Compound C447b]
EC50 [1, 4]: 0.05 µM
CC50 (HepG2 cells; [5]): > 50 µM

Cc1c[nH]c(-c2ccc(-n3c(NC(C)C)nc4c(c3=O)C[C@@H](C)N(C(=O)c3ccc(Cl)c(Cl)c3)C4)c(Cl)c2)n1 (single isomer, unassigned) [Compound C455a]
EC50 ([1]; Hepatitis B virus, HepG2.117, 72 h, HepG2.117 cells, intracellular HBV DNA by real-time PCR, 3 days of treatment, mean value; read-out: EC50 (μM, mean value)): 0.05 µM
CC50 (HepG2 cells; [5]): 17.6 µM

Cc1c[nH]c(-c2ccc(-n3c(NC(C)C)nc4c(c3=O)C[C@@H](C)N(C(=O)c3ccc(Cl)c(Cl)c3)C4)c(Cl)c2)n1 (single isomer, unassigned) [Compound C455b]
EC50 [1, 4]: 0.1 µM
CC50 (HepG2 cells; [5]): > 50 µM

CNC(=O)c1ccc(-n2c(NC(C)C)nc3c(c2=O)C[C@@H](C)N(C(=O)c2ccc(Cl)c(C(F)(F)F)c2)C3)c(Cl)c1 (single isomer, unassigned) [Compound C639b]
EC50 [1, 4]: 0.02 µM
CC50 (HepG2 cells; [5]): 25.4 µM

CNC(=O)c1ccc(-n2c(NC(C)C)nc3c(c2=O)C[C@@H](C)N(C(=O)c2ccc(Cl)c(C(F)(F)F)c2)C3)c(OC)c1 (single isomer, unassigned) [Compound C643a]
EC50 [1, 4]: 0.04 µM
CC50 (HepG2 cells; [5]): > 50 µM

CNC(=O)c1ccc(-n2c(NC(C)C)nc3c(c2=O)C[C@@H](C)N(C(=O)c2ccc(Cl)c(C(F)(F)F)c2)C3)c(OC)c1 (single isomer, unassigned) [Compound C643b]
EC50 [1, 4]: 0.05 µM
CC50 (HepG2 cells; [5]): > 50 µM

CNC(=O)c1ccc(-n2c(NC(C)C)nc3c(c2=O)C[C@@H](C)N(C(=O)c2ccc(Cl)c(C(F)(F)F)c2)C3)c(C2CC2)c1 (single isomer, unassigned) [Compound C661a]
EC50 [1, 4]: 0.07 µM
CC50 (HepG2 cells; [5]): > 50 µM

CNC(=O)c1ccc(-n2c(NC(C)C)nc3c(c2=O)C[C@@H](C)N(C(=O)c2ccc(Cl)c(C(F)(F)F)c2)C3)c(C2CC2)c1 (single isomer, unassigned) [Compound C661b]
EC50 [1, 4]: 0.06 µM
CC50 (HepG2 cells; [5]): 25.4 µM

CNC(=O)c1ccc(-n2c(NC(C)C)nc3c(c2=O)C[C@@H](C)N(C(=O)c2ccc(Cl)c(C(F)(F)F)c2)C3)c(C(F)F)c1 (single isomer, unassigned) [Compound C669b]
EC50 [1, 4]: 0.04 µM
CC50 (HepG2 cells; [5]): > 50 µM

CC(C)Nc1nc2c(c(=O)n1-c1ccc(C(=O)NC3CC3)cc1Cl)C[C@@H](C)N(C(=O)c1ccc(Cl)c(C(F)(F)F)c1)C2 (single isomer, unassigned) [Compound C673b]
EC50 [1, 4]: 0.03 µM
CC50 (HepG2 cells; [5]): > 50 µM

CNC(=O)c1ccc(-n2c(N[C@@H](C)C3CC3)nc3c(c2=O)C[C@@H](C)N(C(=O)c2ccc(Cl)c(C(F)(F)F)c2)C3)c(Cl)c1 (single isomer, unassigned) [Compound C676b]
EC50 [1, 4]: 0.02 µM
CC50 (HepG2 cells; [5]): 28.7 µM

COc1cc(C(=O)NC2CC2)ccc1-n1c(NC(C)C)nc2c(c1=O)C[C@@H](C)N(C(=O)c1ccc(Cl)c(C(F)(F)F)c1)C2 (single isomer, unassigned) [Compound C678b]
EC50 [1, 4]: 0.04 µM
CC50 (HepG2 cells; [5]): 44.1 µM

CNC(=O)c1ccc(-n2c(NC(C)C)nc3c(c2=O)C[C@@H](C)N(C(=O)c2ccc(Cl)c(C(F)F)c2)C3)c(Cl)c1 (single isomer, unassigned) [Compound C685b]
EC50 [1, 4]: 0.03 µM
CC50 (HepG2 cells; [5]): > 50 µM

CNC(=O)c1ccc(-n2c(N3CC4CC3C4)nc3c(c2=O)C[C@@H](C)N(C(=O)c2ccc(Cl)c(C(F)(F)F)c2)C3)c(Cl)c1 (single isomer, unassigned) [Compound C701b]
EC50 [1, 2]: 0.03 µM
CC50 (HepG2 cells; 3-days incubation (unmarked values), ATPlite viability): 25.4 µM
